Laboratory results: paper PMC7237762, “Total Synthesis and Biological Evaluation of Kakeromamide A and Its Analogues” (Frontiers in Chemistry, 2020)

Key:
neurons = assay: Cell cytotoxicity toward neurons (Hoechst 33342 staining); format: cell-based; conditions: 2.5, 5 and 10 μM, n = 3
Text: (§1) Bioactive compounds modulating proliferation and differentiation of neural stem cells are required as chemical probes to study about mechanism of neural development or lead compounds for regenerative medicine. In order to evaluate neural differentiation-modulating activities of kakeromamide A and its analogs, we elected to perform the biological tests using the same procedure that we reported in the isolation paper (Nakamura et al., [2018]). Neural stem cells were obtained following the procedure (Nakayama and Inoue, [2006]; Iwata et al., [2016]) with modification. 2.5, 5, and 10 μM of kakeromamide A or its respective derivative was added to astrocytes or neurons. The cell cytotoxicity of kakeromamide A and its analogs toward astrocytes or neurons was carried out using Hoechst 33342 staining (Figure 7).
(§2) Figure 7 Cytotoxicity of Kakeromamide A and Its Analogs. (A) Percentages of cell numbers calculated by Hoechst 33342 positive cells, compared to that of control, in evaluating effects of kakeromamide A and its analogs for astrocytes (n = 3, means ± S.D., *p < 0.05). (B) Percentages of cell numbers calculated by Hoechst 33342 positive cells, compared to that of control, in evaluating effects of kakeromamide A and its analogs for neurons (n = 3, means ± S.D., *p < 0.05).

neural stem cells (NSCs) [1] = assay: NSC differentiation assay, neuronal differentiation (NeuO staining); format: cell-based; conditions: 2.5, 5 and 10 μM, 72 hours in differentiation medium, Hoechst 33342 nuclei, n = 3
Method: (§3) Next, kakeromamide A or its respective derivative was exposed at three concentrations (2.5, 5, and 10 μM) during differentiation of neural stem cells (NSCs). The effects of kakeromamide A and its analogs on the neural differentiation into neurons or astrocytes were evaluated by using NeuO (Er et al., [2015]) a fluorescent probe which could selectively stain neurons, or immunostaining of an astrocyte marker GFAP (glial fibrillary acidic protein), respectively. The nuclei were stained by using Hoechst 33342 followed by the microscopic analysis. Their activities were determined by calculating a ratio NeuO or GFAP positive cells to whole cells and comparing with that of the control. […] Furthermore, the astrocytic or neuronal differentiation were promoted or inhibited, respectively, by treatment with four analogs of compound 1.
(§4) V. Procedures for Biological Tests:
(§5) Induction of neural stem cells in vitro: Neural stem cells (NSCs) were obtained following the procedure (Iwata, et al., 2016; Nakayama, et al., 2006) with modification. Embryoid bodies (EBs) were induced by hanging drop method for 72 hours using 7,500 cells per 20 µL of ESCs culturing medium without LIF. Then the EBs were cultured in non-adhesive bacterial dishes in Neuron Culture Medium (Sumitomo Bakelite, Tokyo, Japan) supplemented with 20 ng/mL rhEGF (R&D Systems, Minneapolis, MN, USA) and 20 ng/mL rhFGF-2 (R&D Systems). […]

astrocytes = assay: Cell cytotoxicity toward astrocytes (Hoechst 33342 staining); format: cell-based; conditions: 2.5, 5 and 10 μM, n = 3
Text: as §1, §2

neural stem cells (NSCs) [2] = assay: NSC differentiation assay, astrocytic differentiation (GFAP immunostaining); format: cell-based; conditions: 2.5, 5 and 10 μM; 72 hours in differentiation medium; anti-GFAP immunostaining, Hoechst 33342 nuclei; n = 3
Method: as §3, §4, §5

Hela cells = conditions: preliminary biological tests of the isolated natural product; ref Nakamura et al., 2018; read-out: cytotoxicity IC50 against Hela cells; cited from earlier work
Text: (§6) Marine cyanobacteria have been playing a pivotal role in producing structurally diversified and biologically intriguing peptides (Luesch et al., [2001]; Guzman-Martinez et al., [2007]; Zainuddin et al., [2007]). In 2018, we reported the isolation of a novel cyclopeptide, kakeromamide A (Figure 1), from the marine cyanobacterium Moorea bouillonii collected near Japan (Nakamura et al., [2018]). […] To the best of our knowledge, this is the first example of marine cyclopeptide t ...

neural stem cells (NSCs) [3] = conditions: isolated natural product; ref Nakamura et al., 2018; cited from earlier work
Text: as §6

## Kakeromamide A
neurons
  cytotoxicity toward neurons (cell number by Hoechst 33342 positive cells vs control): No significant cytotoxicity
Neural stem cells (NSCs) [1]
  neuronal differentiation of NSCs (ratio of NeuO positive cells to whole cells vs control): inhibiting neuronal differentiation of NSCs
astrocytes
  cytotoxicity toward astrocytes (cell number by Hoechst 33342 positive cells vs control): No significant cytotoxicity
Neural stem cells (NSCs) [2]
  astrocytic differentiation of NSCs (ratio of GFAP positive cells to whole cells vs control): promoting differentiation of NSCs into astrocytes
Hela cells
  IC50: 10 µM
Neural stem cells (NSCs) [3]
  concentration inducing neural stem cells differentiation into astrocytes: 2.5 to 10 µM
